Columns and labels:
[1] = test system: Human immunodeficiency virus 1; experiment: Antiviral activity against HIV1 NL4-3 infected in human MT2 cells assessed as inhibition of virus-induced cell death at 0.5 multiplicities of infection after 6 days; type: functional, organism-based; conditions: Human immunodeficiency virus 1, NL4-3, MT2, 144 h
[2] = test system: Human immunodeficiency virus 1; experiment: Antiviral activity against HIV1 NL4-3 harboring reverse transcriptase V108I, E138K mutant infected in human SupT1 cells derived from 9 viral passages with lersivirine assessed as inhibition of viral replication after 21 days relative to drug sensitive HIV1 NL4-3; type: functional, SUP-T1
[3] = test system: Human immunodeficiency virus 1; experiment: Antiviral activity against HIV1 NL4-3 infected in human SupT1 cells derived from 11 viral passages assessed as inhibition of viral replication after 21 days relative to drug sensitive HIV1 NL4-3; type: functional, SUP-T1
[4] = test system: Human immunodeficiency virus 1; experiment: Antiviral activity against HIV1 NL4-3 harboring reverse transcriptase V108I, E138K, F227F/L mutant infected in human SupT1 cells derived from 11 viral passages with lersivirine assessed as inhibition of viral replication after 21 days relative to drug sensitive HIV1 NL4-3; type: functional, SUP-T1
[5] = test system: Human immunodeficiency virus 1; experiment: Antiviral activity against HIV1 NL4-3 harboring reverse transcriptase V108I, H221Y, F227F/L, M230M/I mutant infected in human SupT1 cells derived from 11 viral passages with lersivirine assessed as inhibition of viral replication after 21 days relative to drug sensitive HIV1 NL4-3; type: functional, SUP-T1
[6] = test system: Human immunodeficiency virus 1; experiment: Antiviral activity against HIV1 NL4-3 harboring reverse transcriptase L100I, K103Q, H221H/Y mutant infected in human SupT1 cells derived from 11 viral passages with efavirenz assessed as inhibition of viral replication after 21 days relative to drug sensitive HIV1 NL4-3; type: functional, SUP-T1

SMILES | EC50 [1] | fold change (FC) [2] | fold change (FC) [3] | fold change (FC) [4] | fold change (FC) [5] | fold change (FC) [6]
C=C(C)[C@@H]1CC[C@]2(C(=O)O)CC[C@]3(C)[C@H](CC[C@@H]4[C@@]5(C)CC[C@H](OC(=O)CC(C)(C)C(=O)O)C(C)(C)[C@@H]5CC[C@]43C)[C@@H]12 [BEVIRIMAT] | 0.5 nM | – | – | – | – | –
CC(C)Nc1cccnc1N1CCN(C(=O)c2cc3cc(NS(C)(=O)=O)ccc3[nH]2)CC1 [DELAVIRDINE] | – | 1.5 | 0.3 | 1.8 | 0.2 | 16.4
Cc1cn([C@H]2C[C@H](N=[N+]=[N-])[C@@H](CO)O2)c(=O)[nH]c1=O [ZIDOVUDINE] | – | 0.4 | 0.2 | 0.6 | 0.1 | 0.1
CC(C)(C)NC(=O)[C@@H]1CN(Cc2cccnc2)CCN1C[C@@H](O)C[C@@H](Cc1ccccc1)C(=O)N[C@H]1c2ccccc2C[C@H]1O | 0.5 nM | – | – | – | – | –
Cc1cc(C#N)cc(C)c1Oc1nc(Nc2ccc(C#N)cc2)nc(N)c1Br [ETRAVIRINE] | 0.5 nM | – | – | – | – | –
Cc1ccnc2c1NC(=O)c1cccnc1N2C1CC1 [NEVIRAPINE] | – | 0.9 | 0.2 | 12.2 | 6.4 | 1

— ChEMBL document CHEMBL1687773 (Antimicrob Agents Chemother, 2010)
